Laboratory results reported in patent US8084020B2, “Use of anti-CD1 antibodies for the modulation of immune responses” (Beth Israel Deaconess Medical Center, priority 2002, dated 2011).

Experiments:
THP-1 cells = test: IL-12 p40 release from THP-1 cells (ELISA); type: cell-based, human; conditions: FIG. 14; with and without PMA (0.1 ng/ml); 2% serum media; IFNγ (20 ng/ml); two days
Excerpt: (§1) PBMC were obtained from healthy adult volunteers of both sexes on Ficoll Hypaque density gradients and cultured in complete medium consisting of RPMI 1640 and 10% FBS. THP-1 is a human monocytic leukaemia cell line. Compared to other human myeloid cell lines, such as HL-60 and U937, THP-1 cells express CD1d on their surfaces. Because of this characteristic, the THP-1 cell line provides a valuable model for studying the mechanism involved in CD1d crosslinking by measuring the IL-12 and phospho kinases in the cell. THP-1 cells was cultured in complete medium consisting of RPMI 1640 and 10% FBS.
For the activation of these target cells, an anti-CD1 antibody was bound to a plate and then incubated with the cells. In particular, […] were coated with 10 μg/ml protein G overnight at 4° C. Wells were washed with PBS and blocked with BSA at room temperature for four hours. Antibody (10 μg/ml) was added to each well for four hours at room temperature. […]
(§2) To measure the increase induction of IL-12 production by an anti-CD1 antibody, the concentrations of P40 and P70 forms of IL-12 in cultured supernatants were measured with a standard sandwich ELISA technique using combinations of monoclonal antibodies to different epitopes of each cytokine (FIGS. 4-22).

antigen presenting cells = test: Induction of IL-12 production by antigen presenting cells / monocytes in vitro; type: cell-based
Excerpt: as §1
(§3) For the activation of these target cells, an anti-CD1 antibody was bound to a plate and then incubated with the cells. In particular, […] were coated with 10 μg/ml protein G overnight at 4° C. Wells were washed with PBS and blocked with BSA at room temperature for four hours. Antibody (10 μg/ml) was added to each well for four hours at room temperature. The wells were washed again to remove the unbound antibodies, and 1.5×10^5 to 2×10^5 cells were added to each well in RPMI 1640 culture media.
as §2

adhered PBMC = test: IL-1α release from adhered PBMC; type: cell-based, human
Excerpt: as §1, §3

CCCCCCCCCCCCCC(=O)O[C@@H]1[C@@H](C)[C@@]2(O)[C@@H](C=C(CO)C[C@]3(O)C(=O)C(C)=C[C@@H]23)[C@@H]2C(C)(C)[C@]12OC(C)=O [PMA]
effect of PMA on IL-12 p40 released from THP-1 cells (THP-1 cells): no significant differences

IFNγ: cytokine
effect of cytokine on anti-CD1 antibody enhanced production of IL-12 (antigen presenting cells): increased the ability of anti-CD1 antibodies to enhance production of IL-12

lipopolysaccharide [LPS]
levels of IL-12 stimulated relative to 51.1 anti-CD1 antibody (antigen presenting cells): comparable or lower levels of IL-12 | induction of IL-1 relative to 51.1 anti-CD1 antibody (adhered PBMC): more potent inducer of IL-1

B1: IL-4: cytokine (protein, UniProt P05112 25-153, looked up)
Interleukin-4: HKCDITLQEIIKTLNSLTEQKTLCTELTVTDIFAASKNTTEKETFCRAATVLRQFYSHHEKDTRCLGATAQQFHRHKQLIRFLKRLDRNLWGLAGLNSCPVKEANQSTLENFLERLKTIMREKYSKCSS
effect of cytokine on anti-CD1 antibody enhanced production of IL-12 (antigen presenting cells): increased the ability of anti-CD1 antibodies to enhance production of IL-12
